Patent publication US20050069887A1, “Dna synthesis promoters dna polymerase-associated factors and utilization thereof” (priority 2001, published 2005)

How the values were obtained:
nPfu DNA polymerase [1] = target: T1, nPfu DNA polymerase (Pyrococcus furiosus, UniProt P61875); assay: PCR using nPfu with oxalate ion and betaine (Example 2-2); format: biochemical; details: 2 mM potassium oxalate, FIG. 12
T1 construct: α-Type Enzyme (Native Pfu); purchased STRATAGENE
T1 sequence (P61875 1-775): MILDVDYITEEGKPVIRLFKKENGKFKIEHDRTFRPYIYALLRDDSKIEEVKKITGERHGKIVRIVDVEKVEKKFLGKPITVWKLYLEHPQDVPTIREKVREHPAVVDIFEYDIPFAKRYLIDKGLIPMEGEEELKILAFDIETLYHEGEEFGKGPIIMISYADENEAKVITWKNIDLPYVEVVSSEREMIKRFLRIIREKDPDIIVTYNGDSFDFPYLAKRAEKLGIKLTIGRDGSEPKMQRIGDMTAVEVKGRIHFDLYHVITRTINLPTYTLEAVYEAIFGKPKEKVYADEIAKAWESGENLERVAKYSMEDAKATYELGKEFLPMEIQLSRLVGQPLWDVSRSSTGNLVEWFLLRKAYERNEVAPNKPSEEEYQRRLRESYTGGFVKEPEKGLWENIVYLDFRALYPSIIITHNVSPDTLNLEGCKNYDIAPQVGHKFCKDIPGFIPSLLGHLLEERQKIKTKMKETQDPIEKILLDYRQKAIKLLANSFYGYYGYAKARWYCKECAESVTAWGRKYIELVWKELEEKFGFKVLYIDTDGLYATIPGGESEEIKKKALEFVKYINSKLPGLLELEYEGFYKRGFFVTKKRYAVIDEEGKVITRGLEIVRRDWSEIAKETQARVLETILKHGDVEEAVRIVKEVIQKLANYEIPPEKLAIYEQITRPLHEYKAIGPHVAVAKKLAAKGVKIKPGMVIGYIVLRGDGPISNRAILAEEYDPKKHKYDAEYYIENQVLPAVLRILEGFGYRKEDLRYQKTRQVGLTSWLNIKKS
Description: Oxalate ion and betaine were investigated for their synergistic effectiveness in amplification of a target DNA which cannot be usually amplified by PCR using nPfu polymerase. Potassium oxalate was added to the PCR buffer (20 mM Tris-HCl(pH: 8.75), 10 mM KCl, 10 mM (NH4)2SO4, 2 mM MgSO41 0.1% Triton X-100, 100 μg/ml BSA) supplied with nPfu (STRATAGENE) to attain a final concentration of 2 mM. Also used were 0.2 mM dNTPs, 0.3 μM of a pair of primers of SEQ ID Nos:16 and 17, and 2.5 U nPfu DNA polymerase. 20 ng of genomic DNA derived from human cell line K562 was used as a template. This reaction mixture was subjected to PCR by using GeneAmp2400 (PE Applied Biosystems) to investigate the influence of varying the concentration of betaine added on the PCR results. The PCR conditions were as follows: 1 preliminary cycle of 94° C. for 2 minutes, and then 35 cycles of 94° C. for 15 seconds, 60° C. for 30 seconds and 68° C. for 8.5 minutes.

EX-Taq DNA polymerase = assay: PCR using EX-Taq DNA polymerase with added salts (Examples 1-1 to 1-3); format: biochemical
Description: The effect produced by the addition of oxalate ions was investigated in the PCR using EX-Taq DNA polymerase. A PCR buffer supplied with EX-Taq (TAKARA) and 0.3 μM of a pair of primers of SEQ ID Nos:8 and 9 and 0.2 mM dNTPs were used. PCR was performed by using 1.0 U EX-Taq DNA polymerase and 20 ng of genomic DNA derived from human cell line K562 as a template, with the influence on the PCR result caused by varying the concentration of added oxalate ion being investigated. The PCR conditions were as follows: 1 preliminary reaction of 94° C. for 2 minutes, and then 35 cycles of 94° C. for 15 seconds, 60° C. for 30 seconds and 68° C. for 8.5 minutes. This PCR amplification was performed by using GeneAmp2400 (PE Applied Biosystems).
Salts (potassium chloride, potassium acetate, potassium oxalate, sodium oxalate, potassium sulfate) were investigated for their effectiveness in PCR using EX-Taq DNA polymerase under the same conditions as Example 1. Each salts was used in an amount of 4 to 6 mM of ion equivalent

nPfu DNA polymerase [2] = target: T1, nPfu DNA polymerase; assay: PCR using nPfu DNA polymerase with added salts (Examples 1-5, 1-6); format: biochemical; details: salt at 4-6 mM of ion equivalent, FIG. 7
Description: The effect produced by the addition of oxalate ion in PCR was investigated using nPfu polymerase. A PCR buffer (20 mM Tris-HCl (pH 8.75), 10 mM KCl, 10 mM (NH4) 2SO4, 2 mM MgSO4, 0.1% Triton X-100, 100 μg/ml BSA) attached to nPfu (STRATAGENE), 0.2 mM of dNTPs, and 0.3 μM of a pair of primers of SEQ ID NOs:12, and 13 were used. PCR was performed by using 2.5 U nPfu DNA polymerase and 20 ng of genomic DNA derived from human cell line K562 as a template, with the influence on the PCR result caused by varying the concentration of oxalate ion being investigated. PCR was performed by using GeneAmp2400 (PE Applied Biosystems) with the following conditions: 1 preliminary reaction of 94° C. for 2 minutes, and then 35 cycles of 94° C. for 15 seconds, 60° C. for 30 seconds and 68° C. for 8 minutes.
Salts (potassium chloride, potassium acetate, potassium oxalate, potassium sulfate) were tested for their effectiveness in PCR using nPfu DNA polymerase under the same conditions as Example 1-5.

KOD-plus DNA polymerase = target: T2, KOD-plus DNA polymerase (Thermococcus kodakarensis, UniProt P77933, DEL407-766/DEL853-1389); format: biochemical, Thermococcus kodakaraensis KOD1
T2 construct: purchased Toyobo
T2 sequence (P77933 other isoform, or with tags, fused parts or gaps DEL407-766/DEL853-1389): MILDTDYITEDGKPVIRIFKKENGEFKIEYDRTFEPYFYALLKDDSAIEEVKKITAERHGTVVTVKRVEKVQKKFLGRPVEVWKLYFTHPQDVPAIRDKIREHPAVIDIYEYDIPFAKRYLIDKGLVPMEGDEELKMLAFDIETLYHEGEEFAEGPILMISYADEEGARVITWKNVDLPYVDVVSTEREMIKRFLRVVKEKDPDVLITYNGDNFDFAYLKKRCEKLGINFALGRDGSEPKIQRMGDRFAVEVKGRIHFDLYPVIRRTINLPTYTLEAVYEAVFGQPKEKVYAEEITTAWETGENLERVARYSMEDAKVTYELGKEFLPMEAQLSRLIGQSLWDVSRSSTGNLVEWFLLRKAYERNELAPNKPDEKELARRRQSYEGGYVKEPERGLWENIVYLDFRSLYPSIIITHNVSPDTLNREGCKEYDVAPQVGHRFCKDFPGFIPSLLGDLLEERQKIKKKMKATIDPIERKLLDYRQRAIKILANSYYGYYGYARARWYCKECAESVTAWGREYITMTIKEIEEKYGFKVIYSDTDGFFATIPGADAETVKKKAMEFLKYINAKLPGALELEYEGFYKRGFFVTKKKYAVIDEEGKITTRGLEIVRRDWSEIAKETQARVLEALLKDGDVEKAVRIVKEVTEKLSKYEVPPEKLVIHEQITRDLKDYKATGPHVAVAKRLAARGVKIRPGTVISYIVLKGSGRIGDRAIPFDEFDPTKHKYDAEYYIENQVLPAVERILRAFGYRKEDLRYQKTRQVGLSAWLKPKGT
Description: The effect produced by the addition of oxalate ion to a hot start enzyme was investigated using a hot start enzyme KOD-plus DNA polymerase containing KOD α-type enzyme) and two kinds of KOD antibodies. The PCR buffer supplied with KOD-plus (manufactured by Toyobo), 0.2 mM dNTPs and 0.3 μM of a primer pair of SEQ ID Nos:8 and 9 were used. PCR was performed using 2.5 U KOD-plus DNA polymerase and 20 ng of Genomic DNA derived from human cell line K562 as a template to investigate the influence of varying the concentration of oxalate ion added on the PCR results. The PCR conditions were as follows: 1 preliminary reaction of 94° C. for 2 minutes, and then 35 cycles of 94° C. for 15 seconds, 60° C. for 30 seconds and 68° C. for 8.5 minutes. The PCR was performed using GeneAmp2400 (PE Applied Biosystems).

| Structure (SMILES) | amplification of target DNA (nPfu DNA polymerase [1]) | amplification of target DNA (electrophoresis pattern) (EX-Taq DNA polymerase; carboxylate salts, FIG. 3) | amplification of target DNA (electrophoresis pattern) (EX-Taq DNA polymerase; salt at 4 to 6 mM of ion equivalent, FIG. 2) | amplification of target DNA (electrophoresis pattern) (nPfu DNA polymerase [2]) | amount of the target DNA amplified (KOD-plus DNA polymerase; 5 mM of potassium oxalate) | optimal concentration of potassium oxalate (KOD-plus DNA polymerase; FIG. 8) | effect on extra bands and target amplification (KOD-plus DNA polymerase; in the presence of potassium oxalate, FIG. 8) |
| --- | --- | --- | --- | --- | --- | --- | --- |
| C[N+](C)(C)CC(=O)[O-] [betaine, trimethylglycine] | amplification of the target DNA was observed | – | – | – | – | – | – |
| O=C([O-])C(=O)[O-].[K+].[K+] [potassium oxalate] | – | amplification of the target DNA was observed | Amplification was observed | amplification of the target DNA observed | a decrease in the amount of the target DNA amplified was found | about 3 mM | no extra bands were observed and only the target DNA was amplified |
